According to ChEMBL document CHEMBL5291721, “A preclinical secondary pharmacology resource illuminates target-adverse drug reaction associations of marketed drugs” (Nat Commun, 2023):

Tests used:
[1] = target: T1, Alpha-2A adrenergic receptor (Homo sapiens, UniProt P08913); assay type: functional, cell-based
T1 sequence (P08913 whole entry): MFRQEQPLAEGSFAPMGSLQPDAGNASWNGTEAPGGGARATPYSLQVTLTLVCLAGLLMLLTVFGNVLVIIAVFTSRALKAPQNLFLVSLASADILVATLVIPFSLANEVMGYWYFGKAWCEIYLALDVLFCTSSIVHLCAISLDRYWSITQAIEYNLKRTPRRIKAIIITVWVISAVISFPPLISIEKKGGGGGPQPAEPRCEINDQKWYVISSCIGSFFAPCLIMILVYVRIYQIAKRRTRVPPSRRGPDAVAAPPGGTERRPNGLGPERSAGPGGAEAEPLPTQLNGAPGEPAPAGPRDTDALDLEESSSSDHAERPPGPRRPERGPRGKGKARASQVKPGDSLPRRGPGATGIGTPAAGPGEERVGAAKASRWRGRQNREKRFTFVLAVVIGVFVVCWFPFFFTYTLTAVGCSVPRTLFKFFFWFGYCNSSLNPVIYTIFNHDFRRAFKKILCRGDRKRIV

[2] = target: Voltage-dependent L-type calcium channel subunit alpha-1C (Rattus norvegicus, UniProt P22002); assay type: functional
Voltage-dependent L-type calcium channel subunit alpha-1C, sequence (P22002 whole entry): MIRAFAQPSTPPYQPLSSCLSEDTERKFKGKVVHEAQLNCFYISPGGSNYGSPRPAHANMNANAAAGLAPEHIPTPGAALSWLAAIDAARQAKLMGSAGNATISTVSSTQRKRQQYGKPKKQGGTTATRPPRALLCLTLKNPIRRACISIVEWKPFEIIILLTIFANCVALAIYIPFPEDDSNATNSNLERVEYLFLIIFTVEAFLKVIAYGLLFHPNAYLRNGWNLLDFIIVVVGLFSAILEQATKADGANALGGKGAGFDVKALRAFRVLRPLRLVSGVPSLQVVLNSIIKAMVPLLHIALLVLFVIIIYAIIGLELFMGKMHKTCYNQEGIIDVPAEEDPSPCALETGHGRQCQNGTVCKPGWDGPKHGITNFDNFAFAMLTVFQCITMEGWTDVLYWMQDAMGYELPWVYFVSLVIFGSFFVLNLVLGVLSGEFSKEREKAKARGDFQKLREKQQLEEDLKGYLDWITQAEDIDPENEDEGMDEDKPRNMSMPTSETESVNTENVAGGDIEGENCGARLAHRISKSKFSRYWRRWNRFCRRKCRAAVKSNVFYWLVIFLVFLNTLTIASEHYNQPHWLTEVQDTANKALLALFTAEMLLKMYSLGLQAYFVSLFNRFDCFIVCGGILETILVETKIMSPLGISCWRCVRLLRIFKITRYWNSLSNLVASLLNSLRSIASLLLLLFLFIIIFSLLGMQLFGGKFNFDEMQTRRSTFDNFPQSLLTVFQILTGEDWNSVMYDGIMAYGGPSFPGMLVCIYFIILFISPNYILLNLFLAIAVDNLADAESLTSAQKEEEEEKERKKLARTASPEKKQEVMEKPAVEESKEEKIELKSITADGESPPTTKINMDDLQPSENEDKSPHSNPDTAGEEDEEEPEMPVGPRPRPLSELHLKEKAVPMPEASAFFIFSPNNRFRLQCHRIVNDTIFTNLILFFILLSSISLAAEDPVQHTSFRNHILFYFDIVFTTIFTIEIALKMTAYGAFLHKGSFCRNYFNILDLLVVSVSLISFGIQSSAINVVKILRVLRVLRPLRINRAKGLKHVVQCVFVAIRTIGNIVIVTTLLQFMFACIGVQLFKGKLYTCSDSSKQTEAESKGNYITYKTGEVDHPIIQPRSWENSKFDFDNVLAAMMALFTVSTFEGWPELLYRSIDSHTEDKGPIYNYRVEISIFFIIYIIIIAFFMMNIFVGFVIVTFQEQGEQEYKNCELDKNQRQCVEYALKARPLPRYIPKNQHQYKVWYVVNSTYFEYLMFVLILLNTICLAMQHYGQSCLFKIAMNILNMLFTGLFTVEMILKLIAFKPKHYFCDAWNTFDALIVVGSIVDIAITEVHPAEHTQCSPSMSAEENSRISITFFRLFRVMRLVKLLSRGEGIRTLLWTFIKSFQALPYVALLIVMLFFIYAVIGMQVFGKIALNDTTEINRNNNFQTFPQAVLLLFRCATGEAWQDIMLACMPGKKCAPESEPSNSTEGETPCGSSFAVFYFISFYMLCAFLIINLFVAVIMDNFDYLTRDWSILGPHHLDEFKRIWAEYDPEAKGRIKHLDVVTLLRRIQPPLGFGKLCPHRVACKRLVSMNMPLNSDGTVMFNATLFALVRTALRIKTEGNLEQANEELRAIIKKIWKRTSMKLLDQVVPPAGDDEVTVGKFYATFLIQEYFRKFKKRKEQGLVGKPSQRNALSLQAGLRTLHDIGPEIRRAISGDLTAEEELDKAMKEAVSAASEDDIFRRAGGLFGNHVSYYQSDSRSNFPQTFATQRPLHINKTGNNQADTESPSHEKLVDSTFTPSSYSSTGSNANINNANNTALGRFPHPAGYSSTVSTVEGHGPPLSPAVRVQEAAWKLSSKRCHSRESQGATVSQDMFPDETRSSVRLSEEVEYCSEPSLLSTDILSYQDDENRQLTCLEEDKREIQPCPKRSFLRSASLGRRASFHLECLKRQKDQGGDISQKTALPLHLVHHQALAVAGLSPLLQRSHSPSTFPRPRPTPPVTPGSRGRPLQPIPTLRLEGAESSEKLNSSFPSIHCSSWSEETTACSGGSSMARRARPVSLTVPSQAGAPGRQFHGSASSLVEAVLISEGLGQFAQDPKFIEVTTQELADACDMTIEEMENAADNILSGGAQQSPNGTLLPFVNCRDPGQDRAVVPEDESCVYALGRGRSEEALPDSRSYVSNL

[3] = target: T2, Muscarinic acetylcholine receptor M1 (Homo sapiens, UniProt P11229); assay type: functional
T2 sequence (P11229 whole entry): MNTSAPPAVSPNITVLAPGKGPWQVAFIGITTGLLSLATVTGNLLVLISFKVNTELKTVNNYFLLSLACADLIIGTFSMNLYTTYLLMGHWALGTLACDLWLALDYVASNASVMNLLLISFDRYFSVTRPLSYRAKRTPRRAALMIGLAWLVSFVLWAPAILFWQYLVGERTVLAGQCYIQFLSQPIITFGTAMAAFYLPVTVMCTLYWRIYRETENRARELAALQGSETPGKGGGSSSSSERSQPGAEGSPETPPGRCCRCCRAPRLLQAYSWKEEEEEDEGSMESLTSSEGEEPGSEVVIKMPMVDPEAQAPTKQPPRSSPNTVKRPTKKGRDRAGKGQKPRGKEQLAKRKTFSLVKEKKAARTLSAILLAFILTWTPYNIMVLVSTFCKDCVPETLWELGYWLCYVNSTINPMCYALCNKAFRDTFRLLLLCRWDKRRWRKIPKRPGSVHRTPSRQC

[4] = target: Muscarinic acetylcholine receptor M3 (Homo sapiens, UniProt P20309)
Muscarinic acetylcholine receptor M3, sequence (P20309 whole entry): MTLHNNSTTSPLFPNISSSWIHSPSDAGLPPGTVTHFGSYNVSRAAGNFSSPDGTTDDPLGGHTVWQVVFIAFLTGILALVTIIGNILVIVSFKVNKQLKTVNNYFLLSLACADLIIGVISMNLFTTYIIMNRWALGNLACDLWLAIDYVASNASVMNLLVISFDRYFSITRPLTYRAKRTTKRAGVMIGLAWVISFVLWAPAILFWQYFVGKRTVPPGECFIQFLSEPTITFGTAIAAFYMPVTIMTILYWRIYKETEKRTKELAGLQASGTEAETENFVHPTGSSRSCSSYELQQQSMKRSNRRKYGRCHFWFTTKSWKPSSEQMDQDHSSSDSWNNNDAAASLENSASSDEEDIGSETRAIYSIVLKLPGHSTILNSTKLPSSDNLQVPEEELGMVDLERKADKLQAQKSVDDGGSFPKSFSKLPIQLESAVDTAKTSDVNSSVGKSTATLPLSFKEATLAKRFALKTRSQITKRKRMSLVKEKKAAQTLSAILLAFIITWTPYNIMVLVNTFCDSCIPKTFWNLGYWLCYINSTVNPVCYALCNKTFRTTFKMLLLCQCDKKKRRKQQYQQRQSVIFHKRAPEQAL

D(1A) dopamine receptor = D(1A) dopamine receptor (Homo sapiens, UniProt P21728); assay type: functional, cell-based
D(1A) dopamine receptor, sequence (P21728 whole entry): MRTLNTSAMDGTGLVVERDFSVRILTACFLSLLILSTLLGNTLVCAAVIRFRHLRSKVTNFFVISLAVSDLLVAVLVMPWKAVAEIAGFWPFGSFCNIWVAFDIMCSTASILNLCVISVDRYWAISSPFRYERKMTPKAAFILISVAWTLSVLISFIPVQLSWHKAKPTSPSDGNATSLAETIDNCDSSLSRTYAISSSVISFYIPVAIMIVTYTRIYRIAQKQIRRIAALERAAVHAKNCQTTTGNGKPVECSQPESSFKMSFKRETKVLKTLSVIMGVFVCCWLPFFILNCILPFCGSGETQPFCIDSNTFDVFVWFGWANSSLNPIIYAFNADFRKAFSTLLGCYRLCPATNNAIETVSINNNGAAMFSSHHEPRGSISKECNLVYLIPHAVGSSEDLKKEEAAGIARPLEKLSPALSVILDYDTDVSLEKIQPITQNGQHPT

Endothelin-1 receptor = target: T3, Endothelin-1 receptor (Homo sapiens, UniProt P25101)
T3 sequence (P25101 whole entry): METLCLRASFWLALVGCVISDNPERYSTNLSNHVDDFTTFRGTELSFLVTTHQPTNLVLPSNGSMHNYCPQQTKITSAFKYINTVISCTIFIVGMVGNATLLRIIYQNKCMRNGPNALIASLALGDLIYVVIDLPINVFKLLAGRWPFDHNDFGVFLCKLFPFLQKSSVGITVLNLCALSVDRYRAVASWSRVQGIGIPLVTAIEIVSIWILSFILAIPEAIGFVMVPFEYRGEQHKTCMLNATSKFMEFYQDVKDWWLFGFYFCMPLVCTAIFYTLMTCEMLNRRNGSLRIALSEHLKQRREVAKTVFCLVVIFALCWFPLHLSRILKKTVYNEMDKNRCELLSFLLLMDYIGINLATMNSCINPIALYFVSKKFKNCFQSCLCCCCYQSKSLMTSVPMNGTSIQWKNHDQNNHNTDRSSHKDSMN

Histamine H1 receptor = Histamine H1 receptor (Homo sapiens, UniProt P35367)
Histamine H1 receptor, sequence (P35367 whole entry): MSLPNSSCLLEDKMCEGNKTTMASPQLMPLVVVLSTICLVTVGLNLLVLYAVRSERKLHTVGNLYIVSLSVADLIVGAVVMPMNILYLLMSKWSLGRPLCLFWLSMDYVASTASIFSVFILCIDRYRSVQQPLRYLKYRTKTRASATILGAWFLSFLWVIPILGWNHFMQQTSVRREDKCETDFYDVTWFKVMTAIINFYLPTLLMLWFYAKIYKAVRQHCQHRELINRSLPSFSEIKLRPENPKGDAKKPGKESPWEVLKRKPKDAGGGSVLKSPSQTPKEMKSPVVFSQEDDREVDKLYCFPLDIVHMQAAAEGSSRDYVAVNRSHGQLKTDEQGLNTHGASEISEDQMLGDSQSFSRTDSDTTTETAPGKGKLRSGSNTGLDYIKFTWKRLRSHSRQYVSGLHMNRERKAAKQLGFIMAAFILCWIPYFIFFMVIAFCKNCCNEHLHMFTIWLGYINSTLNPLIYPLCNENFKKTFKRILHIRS

[5] = target: T4, Equilibrative nucleoside transporter 1 (Homo sapiens, UniProt Q99808)
T4 sequence (Q99808 whole entry): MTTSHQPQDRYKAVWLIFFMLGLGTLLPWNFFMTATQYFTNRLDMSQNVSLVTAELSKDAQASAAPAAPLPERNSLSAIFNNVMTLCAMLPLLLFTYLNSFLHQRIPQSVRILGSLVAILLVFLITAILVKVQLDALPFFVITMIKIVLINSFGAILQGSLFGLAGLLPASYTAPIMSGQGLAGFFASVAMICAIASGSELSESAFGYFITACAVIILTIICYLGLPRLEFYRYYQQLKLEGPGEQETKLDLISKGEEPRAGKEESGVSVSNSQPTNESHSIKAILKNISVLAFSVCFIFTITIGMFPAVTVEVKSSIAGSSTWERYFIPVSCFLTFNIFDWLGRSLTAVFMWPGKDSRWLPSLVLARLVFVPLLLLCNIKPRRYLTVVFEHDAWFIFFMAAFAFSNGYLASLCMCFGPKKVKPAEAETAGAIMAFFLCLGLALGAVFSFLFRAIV

[6] = target: Sodium-dependent dopamine transporter (Homo sapiens, UniProt Q01959)
Sodium-dependent dopamine transporter, sequence (Q01959 whole entry): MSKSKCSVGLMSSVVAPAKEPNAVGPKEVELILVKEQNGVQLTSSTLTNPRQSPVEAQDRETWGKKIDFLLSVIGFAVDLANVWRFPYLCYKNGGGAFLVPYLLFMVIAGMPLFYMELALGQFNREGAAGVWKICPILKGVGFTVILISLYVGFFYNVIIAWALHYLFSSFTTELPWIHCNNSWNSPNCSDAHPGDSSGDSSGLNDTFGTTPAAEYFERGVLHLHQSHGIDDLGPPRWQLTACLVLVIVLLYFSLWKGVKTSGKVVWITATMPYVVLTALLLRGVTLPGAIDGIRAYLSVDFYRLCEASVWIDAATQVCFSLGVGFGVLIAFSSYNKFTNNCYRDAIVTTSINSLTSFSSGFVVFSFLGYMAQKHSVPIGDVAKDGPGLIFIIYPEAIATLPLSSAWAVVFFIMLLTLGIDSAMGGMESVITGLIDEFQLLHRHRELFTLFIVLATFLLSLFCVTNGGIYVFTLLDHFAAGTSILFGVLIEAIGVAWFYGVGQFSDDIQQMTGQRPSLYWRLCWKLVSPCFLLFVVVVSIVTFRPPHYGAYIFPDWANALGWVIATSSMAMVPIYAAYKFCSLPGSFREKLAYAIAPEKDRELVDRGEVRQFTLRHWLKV

[7] = target: Sodium-dependent noradrenaline transporter (Homo sapiens, UniProt P23975)
Sodium-dependent noradrenaline transporter, sequence (P23975 whole entry): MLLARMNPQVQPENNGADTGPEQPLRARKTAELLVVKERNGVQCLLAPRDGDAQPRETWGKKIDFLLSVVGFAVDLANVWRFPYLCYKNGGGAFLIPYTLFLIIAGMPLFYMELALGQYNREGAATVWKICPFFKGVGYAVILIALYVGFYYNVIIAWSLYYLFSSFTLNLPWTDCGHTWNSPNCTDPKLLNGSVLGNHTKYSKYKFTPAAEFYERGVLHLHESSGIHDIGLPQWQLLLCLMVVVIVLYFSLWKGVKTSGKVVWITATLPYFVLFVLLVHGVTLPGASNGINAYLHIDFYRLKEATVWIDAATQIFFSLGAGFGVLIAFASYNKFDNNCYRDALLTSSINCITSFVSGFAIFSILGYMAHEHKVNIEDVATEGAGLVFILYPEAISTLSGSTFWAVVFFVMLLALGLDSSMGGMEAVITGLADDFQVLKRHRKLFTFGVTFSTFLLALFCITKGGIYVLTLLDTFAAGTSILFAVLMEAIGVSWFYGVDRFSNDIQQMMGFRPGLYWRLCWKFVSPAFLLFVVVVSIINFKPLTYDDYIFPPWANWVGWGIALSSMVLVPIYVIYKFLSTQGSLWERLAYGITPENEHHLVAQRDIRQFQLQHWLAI

[8] = target: T5, Amine oxidase [flavin-containing] A (Homo sapiens, UniProt P21397); assay type: functional
T5 sequence (P21397 whole entry): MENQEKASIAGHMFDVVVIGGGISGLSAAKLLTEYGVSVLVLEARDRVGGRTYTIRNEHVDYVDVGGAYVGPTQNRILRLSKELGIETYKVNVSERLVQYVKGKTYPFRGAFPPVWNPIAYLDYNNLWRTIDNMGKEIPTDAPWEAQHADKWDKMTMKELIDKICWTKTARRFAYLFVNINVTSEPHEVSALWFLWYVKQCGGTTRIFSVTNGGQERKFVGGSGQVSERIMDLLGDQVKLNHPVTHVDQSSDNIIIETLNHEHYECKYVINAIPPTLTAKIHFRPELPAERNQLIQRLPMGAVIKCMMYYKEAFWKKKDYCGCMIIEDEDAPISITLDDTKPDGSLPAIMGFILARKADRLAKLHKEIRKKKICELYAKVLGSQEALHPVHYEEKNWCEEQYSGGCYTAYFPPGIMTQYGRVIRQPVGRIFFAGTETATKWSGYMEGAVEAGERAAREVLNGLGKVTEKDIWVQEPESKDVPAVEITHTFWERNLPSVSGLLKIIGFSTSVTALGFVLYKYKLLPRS
Also: assay procedure not described here.

## CCOc1ccccc1OCC1CNCCO1 (stereo unspecified) [VILOXAZINE]
[1]
  AC50: > 10 µM
[2]
  AC50: > 10 µM
[3]
  AC50: > 10 µM
[4]
  AC50: > 10 µM
D(1A) dopamine receptor
  AC50: > 10 µM
Endothelin-1 receptor
  AC50: > 30 µM
Histamine H1 receptor
  AC50: > 10 µM
[5]
  AC50: > 30 µM
[6]
  AC50: > 10 µM
[7]
  AC50: 0.97 µM
[8]
  AC50: > 10 µM
